# Test results: patent US20040162221A1, “Pyrazole derivatives and herbicides containing the same” (IDEMITSU KOSAN CO., LTD., priority 1998, published 2004)
# Key:
# [1] = test system: velvetleaf; experiment: Upland pre-emergence treatment test, velvetleaf; type: in vivo, velvetleaf (Abutilon theophrasti); conditions: pre-emergence soil surface spray, 80 g/ha, 20th day after treatment, greenhouse; note: ranges in brackets are in %
# Excerpt: (§1) 97 Parts by weight of talc (trade name: Zeaklite, supplied by Zeaklite Industry) as a carrier, 1.5 parts by weight of alkylarylsulfonic acid salt (trade name: Neoplex, supplied by Kao-Atlas K.K.) as a surfactant and 1.5 parts by weight of a nonionic and anionic surfactant (trade names Sorpol 800A, supplied by Toho Chemical Co., Ltd.) were uniformly pulverized and mixed to prepare a carrier for a wettable powder.
# (§2) 90 Parts by weight of the above carrier for a wettable powder and 10 parts by weight of one of the compounds of the present invention were uniformly pulverized and mixed to obtain herbicides. Further, in Comparative Herbicide Examples, comparative herbicides were also prepared from the following compounds (A) and (B) in the same manner.
# (§3) Herbicidal efficacy and phytotoxicity to crops were determined on the basis of the ratio of remaining plant weight to plant weight in non-treated plot=(remaining plant weight in treated plot/plant weight in non-treated-plot)×100. The ratings were applied to the following biological tests.
# (§4) Seeds of weeds such as velvetleaf, common lambsquaters, redroot pigweed, common ragweed, green foxtail and large crabgrass and seeds of corn were sown in 1/5,000-are Wagner pots filled with upland soil, and covered with upland soil. Then, a predetermined amount of the herbicide prepared in the above (1) was suspended in water, and the suspension was uniformly sprayed onto the soil surface at a rate of 2,000 liters/hectare. Then, the seeds were grown in a greenhouse, and on the 20th day after the treatment, the herbicide was evaluated for herbicidal efficacy and phytotoxicity to corn on the basis of the ratings shown in (2).
# [2] = test system: common lambsquaters; experiment: Upland pre-emergence treatment test, common lambsquaters; type: in vivo, common lambsquaters (Chenopodium album); conditions: pre-emergence soil surface spray, 80 g/ha, 20th day after treatment, greenhouse; note: ranges in brackets are in %
# Excerpt: as §1, §2, §3, §4
# [3] = test system: redroot pigweed; experiment: Upland pre-emergence treatment test, redroot pigweed; type: in vivo, redroot pigweed (Amaranthus retroflexus); conditions: for Herbicidal Efficacy CC = Rough Pigweed: pre-emergence soil surface spray, 80 g/ha, 20th day after treatment, greenhouse; for Herbicidal Efficacy CC = Rough Pigweed: ranges in brackets are in %
# Excerpt: as §1, §2, §3, §4
# [4] = test system: common ragweed; experiment: Upland pre-emergence treatment test, common ragweed; type: in vivo, common ragweed (Ambrosia artemisilfolia); conditions: pre-emergence soil surface spray, 80 g/ha, 20th day after treatment, greenhouse; note: ranges in brackets are in %
# Excerpt: as §1, §2, §3, §4
# [5] = test system: green foxtail; experiment: Upland pre-emergence treatment test, green foxtail; type: in vivo, green foxtail (Setaria viridis); conditions: pre-emergence soil surface spray, 80 g/ha, 20th day after treatment, greenhouse; note: ranges in brackets are in %
# Excerpt: as §1, §2, §3, §4
# [6] = test system: large crabgrass; experiment: Upland pre-emergence treatment test, large crabgrass; type: in vivo; conditions: pre-emergence soil surface spray, 80 g/ha, 20th day after treatment, greenhouse; note: ranges in brackets are in %
# Excerpt: as §1, §2, §3, §4
# [7] = test system: corn; experiment: Upland pre-emergence treatment test, phytotoxicity to corn; type: in vivo; conditions: pre-emergence soil surface spray, 80 g/ha, 20th day after treatment, greenhouse; note: ranges in brackets are in %
# Excerpt: as §1, §2, §3, §4
# [8] = test system: velvetleaf; experiment: Upland post-emergence treatment test, velvetleaf; type: in vivo, velvetleaf (Abutilon theophrasti); conditions: post-emergence spray at 3-4 leaf stage, 80 g/ha, 30th day after treatment, greenhouse; note: ranges in brackets are in %
# Excerpt: as §1, §2, §3
# (§5) Seeds of weeds velvetleaf, redroot pigweed, common ragweed, green foxtail and large crabgrass and seeds of corn were sown in 1/5,000-are Wagner pots filled with upland soil, and covered with upland soil. The seeds were grown in a greenhouse, and at the stage of 3˜4 leaves of these plants, a predetermined amount of the herbicide prepared in the above (1) was suspended in water, and the suspension was uniformly sprayed onto leaf and stalk portions at a rate of 2,000 liters/hectare. Then, the plants were grown in the greenhouse, and on the 30th day after the treatment, the herbicide was evaluated for herbicidal efficacy and phytotoxicity to the corn on the basis of the ratings shown in (2).
# [9] = test system: redroot pigweed; experiment: Upland post-emergence treatment test, redroot pigweed; type: in vivo, redroot pigweed (Amaranthus retroflexus); conditions: for Herbicidal Efficacy CC = Redroot Pigweed: post-emergence spray at 3-4 leaf stage, 80 g/ha, 30th day after treatment, greenhouse; for Herbicidal Efficacy CC = Redroot Pigweed: ranges in brackets are in %
# Excerpt: as §1, §2, §3, §5
# [10] = test system: common ragweed; experiment: Upland post-emergence treatment test, common ragweed; type: in vivo, common ragweed (Ambrosia artemisilfolia); conditions: post-emergence spray at 3-4 leaf stage, 80 g/ha, 30th day after treatment, greenhouse; note: ranges in brackets are in %
# Excerpt: as §1, §2, §3, §5
# [11] = test system: green foxtail; experiment: Upland post-emergence treatment test, green foxtail; type: in vivo, green foxtail (Setaria viridis); conditions: post-emergence spray at 3-4 leaf stage, 80 g/ha, 30th day after treatment, greenhouse; note: ranges in brackets are in %
# Excerpt: as §1, §2, §3, §5
# [12] = test system: large crabgrass; experiment: Upland post-emergence treatment test, large crabgrass; type: in vivo; conditions: post-emergence spray at 3-4 leaf stage, 80 g/ha, 30th day after treatment, greenhouse; note: ranges in brackets are in %
# Excerpt: as §1, §2, §3, §5
# [13] = test system: corn; experiment: Upland post-emergence treatment test, phytotoxicity to corn; type: in vivo; conditions: post-emergence spray at 3-4 leaf stage, 80 g/ha, 30th day after treatment, greenhouse; note: ranges in brackets are in %
# Excerpt: as §1, §2, §3, §5
Compound,Herbicidal Efficacy AA = Velvetleaf [1],Herbicidal Efficacy BB = Common lambsquaters [2],Herbicidal Efficacy CC = Rough Pigweed [3],Herbicidal Efficacy DD = Common ragweed [4],Herbicidal Efficacy EE = Green foxtail [5],Herbicidal Efficacy FF = Large crabgrass [6],Phytotoxicity Corn [7],Herbicidal Efficacy AA = Velvetleaf [8],Herbicidal Efficacy CC = Redroot Pigweed [9],Herbicidal Efficacy DD = Common ragweed [10],Herbicidal Efficacy EE = Green foxtail [11],Herbicidal Efficacy FF = Large crabgrass [12],Phytotoxicity Corn [13],"herbicidal efficacy against redroot pigweed (in words) ([3]; pre-emergence, text summary of Table 7)","herbicidal efficacy against redroot pigweed (in words) ([9]; post-emergence, Tables 8 and 9)"
"Cc1c(C(=O)c2cnn(C)c2O)ccc2c1C(C)(C)CS2(=O)=O [Compound 1, 5-(1′-methyl-5′-hydroxypyrazol-4′-yl)carbonyl-3,3,4-trimethyl-2,3-dihydrobenzothiophene-1,1-dioxide]",5 (0),5 (0),5 (0),5 (0),5 (0),5 (0),− (100),5 (0),5 (0),5 (0),5 (0),5 (0),− (100),,
Cc1c(C(=O)c2cnn(C)c2OS(C)(=O)=O)ccc2c1C(C)(C)CS2(=O)=O [Compound 2],5 (0),5 (0),5 (0),5 (0),5 (0),5 (0),− (100),5 (0),5 (0),5 (0),5 (0),5 (0),− (100),,
"CCCS(=O)(=O)Oc1c(C(=O)c2ccc3c(c2C)C(C)(C)CS3(=O)=O)cnn1C [Compound 4, 5-(1′-methyl-5′-n-propanesulfonyloxypyrazol-4′-yl)carbonyl-3,3,4-trimethyl-2,3-dihydrobenzothiophene-1,1-dioxide]",5 (0),5 (0),5 (0),5 (0),5 (0),5 (0),− (100),5 (0),5 (0),5 (0),5 (0),5 (0),− (100),,
Cc1ccc(S(=O)(=O)Oc2c(C(=O)c3ccc4c(c3C)C(C)(C)CS4(=O)=O)cnn2C)cc1 [Compound 18],5 (0),5 (0),5 (0),4 (1-20),5 (0),5 (0),− (100),5 (0),5 (0),5 (0),5 (0),5 (0),− (100),,
Cc1c(C(=O)c2cnn(C)c2OC(=O)C2CCCCC2)ccc2c1C(C)(C)CS2(=O)=O [Compound 37],5 (0),5 (0),5 (0),5 (0),5 (0),5 (0),− (100),5 (0),5 (0),5 (0),5 (0),5 (0),− (100),,
Cc1c(C(=O)c2cnn(C)c2OC(=O)c2ccccc2)ccc2c1C(C)(C)CS2(=O)=O [Compound 39],5 (0),5 (0),5 (0),5 (0),5 (0),5 (0),− (100),5 (0),5 (0),5 (0),5 (0),5 (0),− (100),,
"Cc1c(C(=O)c2cnn(C)c2OCC(=O)c2ccccc2)ccc2c1C(C)(C)CS2(=O)=O [Compound 49, 5-(1′-methyl-5′-phenacyloxypyrazol-4′-yl)carbonyl-3,3,4-trimethyl-2,3-dihydrobenzothiophene-1,1-dioxide]",5 (0),5 (0),5 (0),5 (0),5 (0),5 (0),− (100),5 (0),5 (0),5 (0),5 (0),5 (0),− (100),,
"CCN(CC)CC.Cc1c(C(=O)c2cnn(C)c2O)ccc2c1C(C)(C)CS2(=O)=O [Compound 50, 5-(1′-methyl-5′-hydroxypyrazol-4′-yl)carbonyl-3,3,4-trimethyl-2,3-dihydrobenzothiophene-1,1-dioxide triethylamine salt]",5 (0),5 (0),5 (0),4 (1-20),5 (0),5 (0),− (100),5 (0),5 (0),5 (0),5 (0),5 (0),− (100),,
"Cc1c(C(=O)c2cnn(C)c2O)ccc2c1C(C)(C)CS2(=O)=O.[Na] [Compound 52, 5-(1′-methyl-5′-hydroxypyrazol-4′-yl)carbonyl-3,3,4-trimethyl-2,3-dihdyrobenzothiophene-1,1-dioxide sodium salt]",4 (1-20),5 (0),5 (0),4 (1-20),4 (1-20),5 (0),− (100),5 (0),5 (0),5 (0),5 (0),5 (0),− (100),,
"CCCS(=O)(=O)Oc1c(C(=O)c2cc(C)c3c(c2C)C(C)(C)CS3(=O)=O)cnn1CC [Compound (A), reference compound]",2 (41-60),2 (41-60),0 (81-100),1 (61-80),1 (61-80),1 (61-80),− (100),2 (41-60),0 (81-100),2 (41-60),1 (61-80),1 (61-80),− (100),clearly poor,clearly poor
